According to patent US4450292A, “Derivatives of phenyl aliphatic carboxylic acids, and use thereof in treating gastric and gastro-duodenal ailments” (Roussel Uclaf, priority 1981, dated 1984):
Where a name gives a salt, the structure may show the parent alone.

Assays:
Type in all cases: in vivo
[1] = test system: ulcers in rats at the level of the stomach; test: Anti-ulcer activity, SHAY technique (ligating of the pylorus); settings: by mouth, about 16 hours after treatment
Text: (1) Determination of the anti-ulcer activity of the compounds of Examples 1 to 4
The technique used is described by SHAY et al in Gastroenterology, 5, 43, (1945).
SHAY'S technique consists in inducing ulcers in rats at the level of the stomach by ligating of the pylorus.
The animals are anesthetized with ether. A longitudinal incision is made about 1 cm below the sternum, the glandular portion of the stomach and the duodenum are exposed and a ligature is applied a few millimeters below the pylorus. The muscular layer is left as is and the skin is sutured by two clips.
The animals immediately receive the dispersant or the substance to be studied by mouth in a volume of 0.5 cc per hundred grams and are kept without food or drink until sacrificed by carotic venesection, effected about 16 hours after the treatment.
Before removing the stomach, a ligature is placed around the cardia.
The gastric fluid is collected in order to measure the pH thereof.
The stomach is then opened along the greater curvature, rinsed in physiological serum and spread out on millimeter paper in order to be examined under a binocular lens.
The seriousness of the lesions is evaluated macroscopically, being rated from 0 to 4 for each stomach.
For each lot of rats the average intensity of the ulcerations is determined and the protection calculated by referring the average index of the group to the average index of the control group.
The pH values of the gastric liquid are also determined for the treated animals and the control animals.

[2] = Acute toxicity, LD50 lethal dose after oral administration to mice; settings: mouse, in vivo, po, orally
Procedure: (§1) (3) Determination of the acute toxicity
(§2) The LD50 lethal dose of the derivatives of Examples 1 to 9 after administration orally to mice was evaluated.

[3] = test system: gastric fluid; test: Anti-ulcer activity, SHAY technique as modified by P. H. Guth (pylorus ligature plus aspirin), pH of the gastric fluid; settings: rats, orally, aspirin 200 mg/kg
Procedure: (2) Determination of the anti-ulcer activity of the compounds of Examples 7 and 8
The technique used is described by SHAY et al in Gastroenterology, 5, 43 (1945) as modified by P. H. Guth in Gastroenterology, 76, 88 (1976).
After 48 hours fast, rats receive the dispersant or the substance to be studied orally in a volume of 1 cc/100 g.
One hour later the animals are anesthetized with ether. A longitudinal incision is made about 1 cm below the sternum, the glandular part of the stomach and the duodenum are exposed and a ligature is placed a few millimeters below the pylorus. The muscular layer is sutured and the skin is clipped.
An hour later, 200 mg/kg of aspirin dispersed in a 1% suspension of methyl cellulose in water to which 150 millimoles of hydrochloric acid have been added are administered orally in a volume of 0.5 cc/100 g.
Two hours after this last administration, the animals are sacrificed by means of carbon dioxide.
Before removing the stomach, a ligature is placed above the cardia.
The gastric fluid is collected in order to measure its pH for the treated animals and the control animals.

[4] = test system: mice; test: Acute toxicity, LD50 lethal dose after oral administration to mice; settings: orally
Procedure: as §1, §2

Compound: COc1cc(OC)c(C(=O)CC(O)C(=O)O)cc1OC (centres unmarked) [Example 1, 4-(2,4,5-trimethoxyphenyl)-4-oxo-2-hydroxy butanoic acid]
- Ulcerization % Protection As Compared with the Controls ([1]; 100 mg/kg): 43%
- pH of the Gastric Fluid, Treated Animals ([1]; 100 mg/kg): 2.5
- LD50 [2]: 1000 mg/kg

Compound: COc1cc(OC)c(C(=O)/C=C/C(=O)O)cc1OC [Example 2, (E) 4-(2,4,5-trimethoxyphenyl)-4-oxo-2-butenoic acid]
- Ulcerization % Protection As Compared with the Controls ([1]; 4 mg/kg): 72%
- pH of the Gastric Fluid, Treated Animals ([1]; 4 mg/kg): 3.6
- Ulcerization % Protection As Compared with the Controls ([1]; 20 mg/kg): 100%
- pH of the Gastric Fluid, Treated Animals ([1]; 20 mg/kg): 4.6
- LD50 [2]: 600 mg/kg

Compound: COc1cc(C(=O)CC(O)C(=O)O)cc(OC)c1OC (centres unmarked) [Example 3, 4-(3,4,5-trimethoxyphenyl)-4-oxo-2-hydroxy butanoic acid]
- Ulcerization % Protection As Compared with the Controls ([1]; 100 mg/kg): 45%
- pH of the Gastric Fluid, Treated Animals ([1]; 100 mg/kg): 3.7
- LD50 [2]: 1000 mg/kg

Compound: COc1cc(C(=O)/C=C/C(=O)O)cc(OC)c1OC [Example 4, (E)-4-(3,4,5-trimethoxyphenyl)-4-oxo-2-butenoic acid]
- Ulcerization % Protection As Compared with the Controls ([1]; 0.8 mg/kg): 38%
- pH of the Gastric Fluid, Treated Animals ([1]; 0.8 mg/kg): 1.8
- Ulcerization % Protection As Compared with the Controls ([1]; 4 mg/kg): 65%
- pH of the Gastric Fluid, Treated Animals ([1]; 4 mg/kg): 3.0
- Ulcerization % Protection As Compared with the Controls ([1]; 20 mg/kg): 98%
- pH of the Gastric Fluid, Treated Animals ([1]; 20 mg/kg): 2.4
- LD50 [2]: 600 mg/kg

Compound: COc1cc(OC)c(C(=O)/C=C/C(=O)O)c(OC)c1 [Example 5, (E)-4-(2,4,6-trimethoxyphenyl)-4-oxo-2-butenoic acid]
- LD50 [2]: 200 mg/kg

Compound: COc1cc(C(=O)/C=C/C(=O)O)cc(OC)c1OC [Example 7, Morpholine salt of (E) 4-(3,4,5-trimethoxyphenyl)-4-oxo-2-butenoic acid]
- pH of the Gastric Fluid, Treated Animals ([3]; 4 mg/kg): 2
- pH of the Gastric Fluid, Treated Animals ([3]; 20 mg/kg): 2.4
- pH of the Gastric Fluid, Treated Animals ([3]; 100 mg/kg): 4.1
- LD50 [4]: > 400 mg/kg

Compound: COc1cc(C(=O)/C=C/C(=O)O)cc(OC)c1OC [Example 8, Sodium salt of (E)-4-(3,4,5-trimethoxyphenyl)-4-oxo-2-butenoic acid]
- pH of the Gastric Fluid, Treated Animals ([3]; 0.8 mg/kg): 2.3
- pH of the Gastric Fluid, Treated Animals ([3]; 4 mg/kg): 2.2
- pH of the Gastric Fluid, Treated Animals ([3]; 20 mg/kg): 3
- pH of the Gastric Fluid, Treated Animals ([3]; 100 mg/kg): 4.6
- LD50 [4]: > 400 mg/kg

Compound: COc1cc(C(=O)/C=C/C(=O)O)cc(OC)c1OC [Example 9, Piperidine salt of (E)-4-(3,4,5-trimethoxyphenyl)-4-oxo-2-butenoic acid]
- LD50 [4]: > 400 mg/kg
